# Reference: patent publication US20140051685A1, “THERAPEUTIC TREATMENT FOR METABOLIC SYNDROME, TYPE 2 DIABETES, OBESITY OR PREDIABETES” (priority 2010, published 2014)
# Columns and labels:
# Type in all cases: in vivo
# [1] = test system: obese, diabetic female ob/ob mice; assay: Low dose amphetamine with or without bromocriptine in ob/ob mice; conditions: amphetamine 3 mg/kg
# Source text: Amphetamine is a selective presynaptic dopamine release enhancer. It also acts as a presynaptic noradrenergic release enhancer but at higher dosages that will counter the effect of the dopamine reuptake inhibition activity to improve metabolism. However, addition of a dopamine D2 receptor agonist will act to reduce any amphetamine-induced increase in synaptic noradrenaline level and therefore should produce a more pronounced desired effect on metabolic disease than amphetamine or the D2 receptor agonist alone. A study was conducted to determine the effects of low dose amphetamine (3 mg/kg) with or without the dopamine D2 receptor agonist bromocriptine (5-<10 mg/kg dose) upon body weight gain, blood glucose, plasma free fatty acid and triglyceride levels in obese, diabetic mice (ob/ob strain). […] The ob/ob mouse is hyperphagic, obese, insulin resistant, diabetic and dyslipidemic due to the absence of functional leptin as a result of a mutation in this gene. Starvation or calorie restriction of these mice leads to increases in plasma free fatty acid levels that can function over the long term to worsen diabetes.
# On the fifteenth day of the study and approximately 24 hours after the final treatment animals were sacrificed and blood samples were obtained for the analyses of blood glucose, plasma free fatty acid and triglyceride levels. […] Amphetamine had no effect on final body weight however, amphetamine plus bromocriptine reduced final body weight from 44±1 g to 39=/- 1.5 g.
# [2] = test system: obese, diabetic female (ob/ob) mice; assay: GBR 12909 once daily for 14 days in obese, diabetic ob/ob mice; conditions: 30 mg/kg once daily
# Protocol: GBR 12909 (1-(2-[bis(4-Fluorophenyl)methoxy]ethyl)-4-(3-phenylpropyl)piperazine dihydrochloride) is a specific dopamine reuptake inhibitor. Systemic administration of GBR 12909 can increase the dopaminergic to noradrenergic neuronal activity in the central nervous system. A study was conducted to determine the effects of GBR 12909 upon blood glucose and plasma free fatty acid levels in obese, diabetic mice (ob/ob strain). The ob/ob mouse is hyperphagic, obese, insulin resistant, diabetic and dyslipidemic due to the absence of functional leptin as a result of a mutation in this gene. Starvation or calorie restriction of these mice leads to increases in plasma free fatty acid levels that can function over the long term to worsen diabetes.
# Different groups of obese, diabetic female (ob/ob) mice (body weight of approximately 33 g) maintained on 12 hour daily photoperiods, housed one per cage and allowed to feed ad libitum were randomized to once daily treatment with either a specific dopamine reuptake inhibitor, GBR 12909 at a dose of 30 mg/kg body weight (n=5-7) or vehicle (control group; n=5-7) for a 14 day period. On the fifteenth day of the study and approximately 24 hours after the final treatment animals were sacrificed and blood samples were obtained for the analyses of blood glucose and plasma free fatty acid and triglyceride levels.
# [3] = test system: obese, diabetic female ob/ob mice with mild diabetes; assay: GBR 12909 and clonidine, interactive effects on blood glucose in ob/ob mice; conditions: GBR 12909 about 20 mg/kg, clonidine about 0.1 mg/kg, alone or together, once daily 14 days, controls 202±41
# Protocol: GBR 12909 is a specific dopamine reuptake inhibitor. Its use can increase the dopaminergic to noradrenergic neuronal activity in the central nervous system. However, by combining GBR 12909 with clonidine, a noradrenergic alpha 2 receptor agonist with preferential affinity for presynaptic alpha 2 sites, it is possible to further increase the dopamine to noradrenaline neuronal activity ratio in the central nervous system. A study was conducted to determine the interactive effects of GBR 12909 and clonidine on blood glucose level in ob/ob mice.
# Obese, diabetic female ob/ob mice (body weight of approximately 28 g) with mild diabetes were maintained on 14 hour daily photoperiods, housed one per cage and allowed to feed ad libitum. Different groups of these animals were randomized to once daily treatment with either a specific dopamine reuptake inhibitor, GBR 12909 at an approximate dose of 20 mg/kg body weight (n=4), or clonidine at an approximate dose of 0.1 mg/kg (n=5), these same dosages of GBR 12909 plus clonidine (n=3), or vehicle (control group; n=5-7) for a 14 day period. On the fifteenth day of the study and approximately 24 hours after the final treatment animals were sacrificed and blood samples were obtained for the analyses of blood glucose levels.
# [4] = test system: female mice fed a high fat diet for 20 weeks; assay: GBR 12909 plus fusaric acid in mice fed a high fat diet; conditions: for body weight (normalization): 2 weeks of treatment, normal weight for age matched controls=28 grams, FIG. 15; for plasma insulin levels compared to lean, insulin sensitive, non-diabetic mice: FIG. 12
# Protocol: Female mice at 4 weeks of age were fed a high fat diet for 20 weeks to induce diabetes and insulin resistance and continued on such diet while treated for 14 days with either GBR 12909 (10 mg/kg), FA (15 mg/kg), GBR 12909 (10 mg/kg) plus FA (15 mg/kg), or vehicle and sacrificed after 14 days of treatment for the analyses of body fat, blood glucose, plasma insulin, and plasma nitric oxide levels. […] Only the GBR/FA group normalized plasma insulin levels. […] This effect was not observed with either GBR or FA treatments alone.
# [5] = test system: male mice fed a high fat diet; assay: GBR versus bupropion in mice fed a high fat diet
# Protocol: The effect of increasing central dopamine neuronal activity versus increasing central dopamine plus norepinephirne neuronal activity on body fat, blood glucose, plasma insulin, and insulin sensitivity was studied in male mice fed a high fat diet from 4 weeks of age until 24 weeks of age. These mice were maintained on this high fat diet while treated with either GBR (20 mg/kg) (a selective dopamine reuptake inhibitor) or bupropion (20 mg/kg) (a dopamine and norepinpehrine reuptake inhibitor) at doses that approximate their 50% maximal effective dose for these functions in vivo in rodents.
# [6] = test system: high fat fed, hypertensive SHR rats; assay: Quinelorane plus fusaric acid in high fat fed, hypertensive SHR rats; conditions: SHR rats on high fat diet; for change from baseline body weight (weight loss): FA 12.5 mg/kg, 17 days, at 13 hours after light onset, FIGS. 1 and 2; for blood glucose level: FIG. 6
# Protocol: Male SHR rats were maintained on 14 hour daily photoperiods and fed a high fat diet (60% of energy from fat; 5.24 kcal/gram weight) for 3 weeks and then divided into different groups and treated with either quinelorane (Q; a dopamine D2/D3 mixed receptor agonist) (0.075 mg/kg), fusaric acid (FA; a dopamine beta hydroxylase inhibitor) (12.5 mg/kg), quinelorane (0.075 mg/kg) plus FA (Q/FA) (12.5 mg/kg), or vehicle at 13 hours after light onset for 17 days. The doses of Q and FA were set at less than half maximal to effect central dopamine receptor binding functions and dopamine beta hydroxylase activity, respectively. […] Blood pressure measurements were taken at 14 days of treatment and animals were sacrificed at 18 days of treatment for analyses of body fat and humoral factors and metabolites. […] Respecting blood glucose, although both Q and FA reduced glucose level relative to vehicle, only the Q/FA regimen normalized blood glucose in these animals relative to vehicle (FIG. 6).
# [7] = test system: obese, diabetic female ob/ob mice; assay: Fusaric acid plus SKF 38393 in ob/ob mice; conditions: fusaric acid 15 mg/kg, SKF 38393 10 mg/kg; for retroperitoneal fat pad weight / plasma triglyceride level: 14 days; for retroperitoneal fat pad weight: control value 727±25; for plasma triglyceride level: controls 155±15; for blood glucose: alone or both, once daily 14 days, controls 380±30
# Protocol: Fusaric acid is a dopamine beta hydroxylase inhibitor that reduces noradrenaline synthesis in noradrenergic neurons. It is not present in dopaminergic neurons and thus exerts no such effect there. SKF38393 is a post-synaptic dopamine D1 receptor agonist with no marked influence on noradrenergic neurons. A study was conducted to determine the interactive effects of fusaric acid plus SKF 38393 on body fat store levels, and blood glucose and plasma triglyceride levels in ob/ob mice. The ob/ob mouse is hyperphagic, obese, insulin resistant, diabeteic and dyslipidemic due to the absence of functional leptin as a result of a mutation in this gene.
# Obese, diabetic female ob/ob mice (body weight of approximately 33 g) maintained on 14 hour daily photoperiods, housed one per cage and allowed to feed ad libitum were randomized to once daily treatment with either fusaric acid (15 mg/kg; n=6-8), SKF 38393 (10 mg/kg; n=6-8), both fusaric acid (15 mg/kg) and SKF 38393 (10 mg/kg) (n=6-8), or vehicle (control group; n=6-8) for a 14 day period. On the fifteenth day of the study and approximately 24 hours after the final treatment animals were sacrificed and blood samples were obtained for the analyses of blood glucose, plasma free fatty acid and triglyceride levels. Relative to controls, fusaric acid raised blood glucose from 380±30 mg/dl to 430±30 mg/dl and SKF 38393 reduced blood glucose to 290±55 mg/dl. However, fusaric acid plus SKF 38393 reduced blood glucose to 180±20 mg/dl. […] Neither fusaric acid nor SKF 38393 had any effect on retroperitoneal fat pad weight (735±43 mg and 735±50 mg, respectively versus control value of 727±25 mg) however, the combination of fusaric acid plus SKF 38393 reduced retroperitoneal fat pad weight to 680±25 mg.
# [8] = test system: female obese diabetic mice (ob/ob strain); assay: Bupropion plus fusaric acid in ob/ob mice; conditions: bupropion 40 mg/kg, FA 10 mg/kg, 14 days, relative to control, FIG. 9
# Protocol: Female obese diabetic mice (ob/ob strain) at 6 weeks of age were fed standard rodent chow and different groups of animals (n=5-7/group) were treated with bupropion (40 mg/kg), FA (10 mg/kg), bupropion (40 mg/kg) plus FA (10 mg/kg), or vehicle for 14 days and then sacrificed for the analyses of blood glucose and body fat store level.
# [9] = test system: female C57 Black mice fed a high simple sugar/moderate fat diet (western diet); assay: Body fat in C57 Black mice fed a western diet (GBR, FA, clonidine and combinations); conditions: mice on western diet; GBR 25 mg/kg, FA 10 mg/kg, clonidine 0.075 mg/kg; 14 days; relative to vehicle and BC/SKF groups; FIG. 7
# Protocol: Female C57 Black mice were maintained on a 12 hour daily photoperiod and fed a high simple sugar/moderate fat diet (western diet) for several weeks to induce obesity and then different groups of animals (n =5-8/group) were treated with either GBR 12909 (25 mg/kg), FA (10 mg/kg), clonidine (0.075 mg/kg), GBR (25 mg/kg) plus FA (10 mg/kg), GBR (25 mg/kg) plus clonidine (0.075 mg/kg), bromocriptine (10 mg/kg) plus SKF38393 (10 mg/kg), or vehicle and sacrificed after 14 days of treatment to analyze body fat store levels.
# [10] = GBR 12909 10 mg/kg, FA 15 mg/kg, 14 days
# [11] = relative to vehicle, 18 days of treatment
smiles,measurement,setting,value
CC(N)Cc1ccccc1 (centres unmarked) [amphetamine],effect on final body weight,[1]; 14 days,no effect
same,plasma free fatty acid levels,"[1]; 14 days, controls 900±100",510 ± 30 µM
same,plasma triglyceride levels,"[1]; bromocriptine 5-<10 mg/kg, 14 days, controls 175±21",70 ± 7 mg/dL
same,blood glucose,"[1]; bromocriptine 5-<10 mg/kg, once daily 14 days, controls 422±46",348 ± 22 mg/dL
"Cl.Cl.Fc1ccc(C(OCCN2CCN(CCCc3ccccc3)CC2)c2ccc(F)cc2)cc1 [GBR 12909, 1-(2-[bis(4-Fluorophenyl)methoxy]ethyl)-4-(3-phenylpropyl)piperazine dihydrochloride]",reduction of plasma triglyceride level relative to controls,[2],approximately 32%
same,blood glucose,"[2]; about 24 hours after final treatment, controls 455±50",145 ± 25 mg/dL
same,final body weight,[2]; controls 42±2,28 ± 0.5 g
same,plasma free fatty acid levels,[2]; controls 780±40,450 ± 20 µM
same,blood glucose,[3],221 ± 31 mg/dL
same,body weight (normalization),[4],not observed
same,blood glucose level,"[4]; GBR 12909 10 mg/kg, FA 15 mg/kg, 14 days, FIG. 11",no significant effect
same,"plasma insulin levels compared to lean, insulin sensitive, non-diabetic mice",[4]; [10],significantly higher
same,"reducing plasma insulin, compared with bupropion at equal dose",[5]; 20 mg/kg each,much more effective
same,HOMA-IR values,"[5]; GBR 20 mg/kg, compared to vehicle and Bupropion (20 mg/kg) groups, FIG. 19",significantly reduced
same,body fat (intraabdominal fat pad),"[5]; GBR 20 mg/kg, compared to vehicle and Bupropion (20 mg/kg) treatment, FIG. 17",significantly reduced
same,blood glucose,"[5]; GBR 20 mg/kg, relative to vehicle and Bupropion (20 mg/kg) groups, FIG. 18",significantly reduced
CCCN1CCC[C@@H]2Cc3nc(N)ncc3C[C@H]21 [Q],change from baseline body weight (weight loss),[6]; Q 0.075 mg/kg,modest if any effects
same,desensitization to the effects on weight loss,"[6]; Q 0.075 mg/kg, weight regained to baseline values by treatment end",exhibited desensitization
same,plasma endothelin-1 (endothelin 1-21 fragment) level,[6]; [11],no significant effect
same,plasma nitric oxide level,[6]; [11],no significant effect
same,blood glucose level,[6]; relative to vehicle,reduced
"CCCCc1ccc(C(=O)O)nc1 [fusaric acid, 5-butyl-2-pyridinecarboxylic acid]",retroperitoneal fat pad weight,[7],735 ± 43 mg
same,plasma triglyceride level,[7],170 ± 27 mg/dL
same,blood glucose,[7],430 ± 30 mg/dL
same,change from baseline body weight (weight loss),[6]; Q 0.075 mg/kg,modest if any effects
same,plasma C-reactive protein (CRP) level,[6]; [11],no significant effect
same,blood glucose level,[6]; relative to vehicle,reduced
same,blood glucose,[8],no significant effect
same,body weight (normalization),[4],not observed
same,"plasma insulin levels compared to lean, insulin sensitive, non-diabetic mice",[4]; [10],significantly higher
"Clc1cccc(Cl)c1NC1=NCCN1 [clonidine, 2-(2,6-dichloroanilino)-2-imidazoline]",blood glucose,[3],250 ± 35 mg/dL
same,body fat store level (intraabdominal fat pad),[9],no effect
"Cl.Oc1cc2c(cc1O)C(c1ccccc1)CNCC2 (centres unmarked) [SKF 38393, 1-phenyl-7,8-dihydroxy-2,3,4,5-tetrahydro-1H-3-benzazepine hydrochloride]",retroperitoneal fat pad weight,[7],735 ± 50 mg
same,plasma triglyceride level,[7],130 ± 7 mg/dL
same,blood glucose,[7],290 ± 55 mg/dL
